What was measured:
[1] = test system: MDA-MB-231 xenograft (human triple negative breast cancer); experiment: Antitumor efficacy and induction of cures in the MDA-MB-231 xenograft model (Examples 1A, 1B); assay type: in vivo, mouse
Protocol: (§1) Female athymic nude mice (Crl:NU(NCr)-Foxnlnu, Charles River) were used when ten weeks old with a body weight (BW) range of 19.7-27.1 g on Day 1 of the study. The animals were fed ad libitum water (reverse osmosis, 1 ppm Cl) and NIH 31 Modified and Irradiated Lab Diet® consisting of 18.0% crude protein, 5.0% crude fat, and 5.0% crude fiber. The mice were housed on irradiated Enrich-o'Cobs™ Laboratory Animal Bedding in static micro-isolators on a 12-hour light cycle at 20-22° C. (68-72° F.) and 40-60% humidity. Charles River Discovery Services North Carolina (CR Discovery Services) specifically complies with the recommendations of the Guide for Care and Use of Laboratory Animals with respect to restraint, husbandry, surgical procedures, feed and fluid regulation, and veterinary care. The animal care and use program at CR Discovery Services is accredited by the Association for Assessment and Accreditation of Laboratory Animal Care International (AAALAC), which assures compliance with accepted standards for the care and use of laboratory animals. These considerations were taken into account in the way that the dosage regimes were designed and implemented.
The human MDA-MB-231 breast adenocarcinoma cells were grown to mid-log phase in RPMI-1640 medium containing 10% fetal bovine serum, 2 mM glutamine, 100 units/mL sodium penicillin G, 25 μg/mL gentamicin, and 100 μg/mL streptomycin sulfate. The tumor cells were cultured in tissue culture flasks in a humidified incubator at 37° C./5% CO2 and 95% air, harvested during exponential growth and resuspended in cold Phosphate-buffered saline (PBS). Each test animal received a subcutaneous (s.c.) injection of 5×10^6 MDA-MB-231 cells (0.1 mL cell suspension) into the right flank, and tumor growth was monitored as the average tumor size approached the target range of 100-150 mm^3. Tumors were measured (mm) in two dimensions using calipers, and volume was calculated using the formula: Tumor Volume (TV) (mm^3)=(width^2×length)/2. Eighteen days after tumor cell implantation, on Day 1 of the study, mice with individual tumor volumes ranging from 75 to 172 mm^3 were randomized into groups of 8-10 animals, with group mean tumor volumes of 114-124 mm^3.
BAL0101553 was dissolved in 0.9% NaCl in water buffered to pH 5 with 1% sodium acetate to yield 2, 2.5 and 3 mg/mL dosing solutions, providing 20, 25 and 30 mg/kg dosages, respectively, in 10 mL/kg dosing volumes. Eribulin (purchased from Eisai Co., Lot. No. 6217, 6288, 6289 and 6309) at 0.5 mg/mL concentration was diluted in saline to yield a 0.01, 0.025 and 0.05 mg/mL dosing solutions, providing 0.1, 0.25 and 0.5 mg/kg dosages, respectively, in a dosing volume of 10 mL/kg.
Groups of mice (n=8-10) bearing MDA-MB-231 tumors were dosed as outlined in the Tables 1 and 3. All doses were adjusted to 10 mL/kg. The control groups received oral doses of vehicle (pH 5 buffered 0.9% NaCl solution). Eribulin was administered i.v. and BAL101553 orally. When eribulin and BAL0101553 were dosed in combination, Eribulin was administered to all groups first followed by BAL0101553 dosing within 30 minutes of the first regimen.
Body weights were recorded daily for days 1-5 and then twice weekly until the end of the study and tumor volumes were recorded twice weekly until the end of the experiment. These parameters were analyzed and graphically represented by using GraphPad-Prism™ 5 for Windows according to standard procedure. […] Tumor free animals at the end of the study time were assessed for residual MDA-MB-231 tumor cells by pathological methods. Skin and subcutaneous tissue including the tumor cell inoculation site from the flank region were resected, preserved in formalin and embedded in paraffin.

[2] = Tolerability in the MDA-MB-231 xenograft model (body weight, mortalities); conditions: for Final body-weight / Body-weight change: mean ± SD
Protocol: as §1, with “The” for “Female athymic nude mice (Crl:NU(NCr)-Foxnlnu, Charles River) were used when ten weeks old with a body weight (BW) range of 19.7-27.1 g on Day 1 of the study. The animals were fed ad libitum water (reverse osmosis, 1 ppm Cl) and NIH 31 Modified and Irradiated Lab Diet® consisting of 18.0% crude protein, 5.0% crude fat, and 5.0% crude fiber. The”
All doses were adjusted to 10 mL/kg. The control groups received oral doses of vehicle (pH 5 buffered 0.9% NaCl solution). Eribulin was administered i.v. and BAL101553 orally. When eribulin and BAL0101553 were dosed in combination, Eribulin was administered to all groups first followed by BAL0101553 dosing within 30 minutes of the first regimen.
Body weights were recorded daily for days 1-5 and then twice weekly until the end of the study and tumor volumes were recorded twice weekly until the end of the experiment. These parameters were analyzed and graphically represented by using GraphPad-Prism™ 5 for Windows according to standard procedure. […] Skin and subcutaneous tissue including the tumor cell inoculation site from the flank region were resected, preserved in formalin and embedded in paraffin. Sections of approximately 5 μm were mounted on glass slides and stained with hematoxylin/eosin and were evaluated by a trained pathologist, to identify residual tumor cells at the site of injection, and were being reported as positive for the existence of residual tumor cells or as negative for a complete lack of any evidence of residual tumor cells.

[3] = Day 26, BAL101553 p.o. 20 mg/kg qd D1-D21, 20 mg/kg qd D25-D43
[4] = Day 100 (endpoint), BAL101553 p.o. 20 mg/kg qd D1-D21, 20 mg/kg qd D25-D43
[5] = E1A, Day 25, p.o. 20 mg/kg qd x5/qw D1-D9, 20 mg/kg qd D12-D34
[6] = E1A, Day 25, p.o. 30 mg/kg qd x5/qw D1-D9, 25 mg/kg qd D12-D34
[7] = E1A, Day 85 (endpoint), p.o. 20 mg/kg qd x5/qw D1-D9, 20 mg/kg qd D12-D34
[8] = E1A, Day 85 (endpoint), p.o. 30 mg/kg qd x5/qw D1-D9, 25 mg/kg qd D12-D34
[9] = E1B, Day 26, p.o. 20 mg/kg qd D1-D21, 20 mg/kg qd D25-D43

In the case of `N#CCCNc1nonc1-c1nc2ccccc2n1CC(=O)c1ccc(NC(=O)[C@@H](N)CCCCN)cc1` [BAL101553, (S)-2,6-Diamino-hexanoic acid [4-(2-{2-[4-(2-cyano-ethylamino)-furazan-3-yl]-benzoimidazol-1-yl}-acetyl)-phenyl]-amide], the “# of regressed tumors (total)” value [1, 3] is reported as 1 (10), the T/C [1, 3] is reported as 0.12 and the “# of confirmed cures (total)” value [1, 4] is reported as 1 (10). The “# of tumors with TV ≤ 4 mm^3 (total)” value [1, 4] was 0 (10), the “% cures” value [1, 4] was 10% and the “# of regressed tumors (total)” value [1, 5] was 0 (8). For the same molecule, the T/C [1, 5] was 0.21, the “# of regressed tumors (total)” value [1, 6] was 4 (8) and the T/C [1, 6] was 0.07. The “# of confirmed cures (total)” value [1, 7] was 0 (8), the “# of tumors with TV ≤ 4 mm^3 (total)” value [1, 7] was 0 (8) and the “% cures” value [1, 7] was 0%. For the same molecule, the “# of confirmed cures (total)” value [1, 8] was 0 (8), the “# of tumors with TV ≤ 4 mm^3 (total)” value [1, 8] was 0 (8) and the “% cures” value [1, 8] was 0%. The “Final body-weight” value [2, 5] was 26.6 ± 1.6 g, the “Final body-weight” value [2, 6] was 25 ± 1.9 g and the “T/C (TC-BW, body weight)” value [2, 5] was 1.02. The “T/C (TC-BW, body weight)” value [2, 6] was 1.00, the “Body-weight change” value ([2]; E1A, day-0 until day-25, p.o. 20 mg/kg qd x5/qw D1-D9, 20 mg/kg qd D12-D34) was 2.8 ± 0.7 g and the “Body-weight change” value ([2]; E1A, day-0 until day-25, p.o. 30 mg/kg qd x5/qw D1-D9, 25 mg/kg qd D12-D34) was 2.0 ± 0.8 g. The Mortalities ([2]; E1A, p.o. 20 mg/kg qd x5/qw D1-D9, 20 mg/kg qd D12-D34) was 0/8, the “Final body-weight” value [2, 9] was 25.9 ± 1.4 g and the “T/C (TC-BW, body weight)” value [2, 9] was 1.04. For the same molecule, the “Body-weight change” value ([2]; E1B, day-0 until day-26, p.o. 20 mg/kg qd D1-D21, 20 mg/kg qd D25-D43) was 2.6 ± 0.7 g and the Mortalities ([2]; E1B, p.o. 20 mg/kg qd D1-D21, 20 mg/kg qd D25-D43) was 0/10.

From US11419856B2, “Pharmaceutical combinations for use in the treatment of neoplastic diseases” (Basilea Pharmaceutica International AG, priority 2017, dated 2022)
